# In patent US9777001B2 (priority 2014, dated 2017):
# pKi: −log10 of the molar value. Where a name gives a salt, the structure may show the parent alone.
# Biological target: human plasma kallikrein (Homo sapiens, UniProt P03952)
# Experiment: biochemical
# Conditions: purified human plasma kallikrein, substrate S-2302, sodium phosphate buffer pH 7.5
# human plasma kallikrein, sequence (P03952 391-638 limits assumed): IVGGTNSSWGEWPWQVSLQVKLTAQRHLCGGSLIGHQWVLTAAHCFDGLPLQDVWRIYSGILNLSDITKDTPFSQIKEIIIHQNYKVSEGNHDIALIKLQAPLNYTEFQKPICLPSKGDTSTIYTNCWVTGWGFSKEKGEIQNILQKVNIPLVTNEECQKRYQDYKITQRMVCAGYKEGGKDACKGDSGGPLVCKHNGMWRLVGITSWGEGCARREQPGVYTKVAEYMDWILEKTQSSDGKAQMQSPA
# human plasma kallikrein, sequence (P03952 20-390 partner limits assumed): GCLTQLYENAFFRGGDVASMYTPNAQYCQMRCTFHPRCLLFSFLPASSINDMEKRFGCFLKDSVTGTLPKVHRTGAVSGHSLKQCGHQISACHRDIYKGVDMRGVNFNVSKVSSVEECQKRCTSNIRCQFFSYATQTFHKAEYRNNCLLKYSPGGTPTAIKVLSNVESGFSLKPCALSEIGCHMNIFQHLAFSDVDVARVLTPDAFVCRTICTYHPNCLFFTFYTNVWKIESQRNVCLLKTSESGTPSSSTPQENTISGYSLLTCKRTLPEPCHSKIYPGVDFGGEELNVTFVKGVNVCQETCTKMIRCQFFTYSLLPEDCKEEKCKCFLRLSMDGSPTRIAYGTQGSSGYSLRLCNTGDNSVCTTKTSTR
row,SMILES,pKi
1,"C[C@@H]1CCC[C@H](n2cnc(-c3cc(Cl)ccc3-n3cc(C#N)nn3)cc2=O)c2cc(ccn2)-c2ccc(C#N)cc2NC1=O [Example 38, (10R,14S)-14-{4-[5-Chloro-2-(4-cyano-1H-1,2,3-triazol-1-yl)phenyl]-6-oxo-1,6-dihydropyrimidin-1-yl}-10-methyl-9-oxo-8,16-diazatricyclo[13.3.1.0^2,7]nonadeca-1(19),2(7),3,5,15,17-hexaene-5-carbonitrile trifluoroacetate]",7.72
2,"C[C@@H]1CC(O)C[C@H](n2cnc(-c3c(-n4cc(Cl)nn4)ccc(Cl)c3F)cc2=O)c2cc(ccn2)-c2cc(F)ccc2NC1=O (stereo partly drawn) [Example 40, (10R,14S)-14-{4-[3-chloro-6-(4-chloro-1H-1,2,3-triazol-1-yl)-2-fluorophenyl]-6-oxo-1,6-dihydropyrimidin-1-yl}-4-fluoro-12-hydroxy-10-methyl-8,16-diazatricyclo[13.3.1.0^2,7]nonadeca-1(19),2(7),3,5,15,17-hexaen-9-one trifluoroacetate]",7.89
3,"COC(=O)Nc1ccc2c(c1)NC(=O)[C@H](C)CCC[C@H](n1cnc(-c3cccc(Cl)c3F)cc1=O)c1cc-2ccn1 [Example 45, methyl N-[(10R,14S)-14-[4-(3-chloro-2-fluorophenyl)-6-oxo-1,6-dihydropyrimidin-1-yl]-10-methyl-9-oxo-8,16-diazatricyclo[13.3.1.0^2,7]nonadeca-1(18),2,4,6,15(19),16-hexaen-5-yl]carbamate trifluoroacetate]",7.11
4,"COC(=O)Nc1ccc2c(c1)NC(=O)[C@H](C)CCC[C@H](n1cnc(-c3cc(Cl)ccc3F)cc1=O)c1cc-2ccn1 [Example 49, methyl N-[(10R,14S)-14-[4-(5-chloro-2-fluorophenyl)-6-oxo-1,6-dihydropyrimidin-1-yl]-10-methyl-9-oxo-8,16-diazatricyclo[13.3.1.0^2,7]nonadeca-1(19),2(7),3,5,15,17-hexaen-5-yl]carbamate trifluoroacetate]",7.89
5,"C[C@@H]1CCC[C@H](n2cnc(-c3c(-n4ccnn4)ccc(Cl)c3F)cc2=O)c2cc(ccn2)-c2c(ccc(F)c2F)NC1=O [Example 54, (10R,14S)-14-{4-[3-chloro-2-fluoro-6-(1H-1,2,3-triazol-1-yl)phenyl]-6-oxo-1,6-dihydropyrimidin-1-yl}-3,4-difluoro-10-methyl-8,16-diazatricyclo[13.3.1.0^2,7]nonadeca-1(19),2(7),3,5,15,17-hexaen-9-one trifluoroacetate]",7.39
6,"C[C@@H]1CCC[C@H](n2cnc(-c3c(-n4cc(Cl)nn4)ccc(Cl)c3F)cc2=O)c2cc(ccn2)-c2ccccc2NC1=O [Example 58, (10R,14S)-14-{4-[3-chloro-6-(4-chloro-1H-1,2,3-triazol-1-yl)-2-fluorophenyl]-6-oxo-1,6-dihydropyrimidin-1-yl}-10-methyl-8,16-diazatricyclo [13.3.1.0^2,7]nonadeca-1(19),2,4,6,15,17-hexaen-9-one]",8.30
7,"C[C@@H]1CCC[C@H](n2cnc(-c3cc(Cl)ccc3-c3cnn(C)c3)cc2=O)c2cc(ccn2)-c2cc(F)ccc2NC1=O [Example 66, (10R,14S)-14-{4-[5-chloro-2-(1-methyl-1H-pyrazol-4-yl)phenyl]-6-oxo-1,6-dihydropyrimidin-1-yl}-4-fluoro-10-methyl-8,16-diazatricyclo[13.3.1.0^2,7]nonadeca-1(19),2(7),3,5,15,17-hexaen-9-one]",6.05
8,"C[C@@H]1CCC[C@H](n2cnc(-c3cc(Cl)ccc3-n3cc(Cl)nn3)cc2=O)c2cc(ccn2)-c2ccc(C(F)F)cc2NC1=O [Example 74, (10R,14S)-14-{4-[5-chloro-2-(4-chloro-1H-1,2,3-triazol-1-yl)phenyl]-6-oxo-1,6-dihydropyrimidin-1-yl}-5-(difluoromethyl)-10-methyl-8,16-diazatricyclo [13.3.1.0^2,7]nonadeca-1(19),2(7),3,5,15,17-hexaen-9-one]",7.40
9,"C[C@@H]1CCC[C@H](n2cnc(-c3cc(Cl)ccc3-n3cc(Cl)nn3)cc2=O)c2cc(ccn2)-c2ccc(Cl)cc2NC1=O [Example 75, (10R,14S)-5-chloro-14-{4-[5-chloro-2-(4-chloro-1H-1,2,3-triazol-1-yl)phenyl]-6-oxo-1,6-dihydropyrimidin-1-yl}-10-methyl-8,16-diazatricyclo [13.3.1.0^2,7]nonadeca-1(19),2(7),3,5,15,17-hexaen-9-one]",7.00
10,"C[C@@H]1CCC[C@H](n2cnc(-c3cc(Cl)ccc3-n3cc(Cl)nn3)cc2=O)c2cc(ccn2)-c2ccc(C#N)cc2NC1=O [Example 89, (10R,14S)-14-{4-[5-chloro-2-(4-chloro-1H-1,2,3-triazol-1-yl)phenyl]-6-oxo-1,6-dihydropyrimidin-1-yl}-10-methyl-9-oxo-8,16-diazatricyclo[13.3.1.0^2,7]nonadeca-1(19),2(7),3,5,15,17-hexaene-5-carbonitrile trifluoroacetate]",8.10
11,"C#Cc1ccc2c(c1)NC(=O)[C@H](C)CCC[C@H](n1cnc(-c3cc(Cl)ccc3-n3cc(Cl)nn3)cc1=O)c1cc-2ccn1 [Example 91, (10R,14S)-14-{4-[5-chloro-2-(4-chloro-1H-1,2,3-triazol-1-yl)phenyl]-6-oxo-1,6-dihydropyrimidin-1-yl}-5-ethynyl-10-methyl-8,16-diazatricyclo[13.3.1.0^2,7]nonadeca-1(19),2(7),3,5,15,17-hexaen-9-one]",6.18
12,"C[C@@H]1CCC[C@H](n2cnc(-c3cc(Cl)ccc3-n3cc(C(F)F)nn3)cc2=O)c2cc(ccn2)-c2ccccc2NC1=O [Example 94, (10R,14S)-14-(4-{5-chloro-2-[4-(difluoromethyl)-1H-1,2,3-triazol-1-yl]phenyl}-6-oxo-1,6-dihydropyrimidin-1-yl)-10-methyl-8,16-diazatricyclo[13.3.1.0^2,7]nonadeca-1(19),2(7),3,5,15,17-hexaen-9-one]",7.52
13,"C[C@@H]1CCC[C@H](n2cnc(-c3c(-n4cc(Cl)nn4)ccc(Cl)c3F)cc2=O)c2cc(ccn2)-c2cc(C#N)ccc2NC1=O [Example 98, (10R,14S)-14-{4-[3-Chloro-6-(4-chloro-1H-1,2,3-triazol-1-yl)-2-fluorophenyl]-6-oxo-1,6-dihydropyrimidin-1-yl}-10-methyl-9-oxo-8,16-diazatricyclo[13.3.1.0^2,7]nonadeca-1(19),2(7),3,5,15,17-hexaene-4-carbonitrile trifluoroacetate]",7.40
14,"C[C@@H]1CCC[C@H](n2cnc(-c3cc(Cl)ccc3-n3cc(Cl)nn3)cc2=O)c2cc(ccn2)-c2ccc(OCC(=O)O)cc2NC1=O [Example 99, 2-{[(10R,14S)-14-{4-[5-chloro-2-(4-chloro-1H-1,2,3-triazol-1-yl)phenyl]-6-oxo-1,6-dihydropyrimidin-1-yl}-10-methyl-9-oxo-8,16-diazatricyclo[13.3.1.0^2,7]nonadeca-1(19),2(7),3,5,15,17-hexaen-5-yl]oxy}acetic acid]",5.31
15,"C[C@@H]1CCC[C@H](n2cnc(-c3cc(Cl)ccc3-n3cc(C(F)(F)F)nn3)cc2=O)c2cncc(c2)-c2cc(F)ccc2NC1=O [Example 103, (10R,14S)-14-(4-{5-chloro-2-[4-(trifluoromethyl)-1H-1,2,3-triazol-1-yl]phenyl}-6-oxo-1,6-dihydropyrimidin-1-yl)-4-fluoro-10-methyl-8,17-diazatricyclo[13.3.1.0^2,7]nonadeca-1(19),2(7),3,5,15,17-hexaen-9-one]",7.49
16,"C[C@@H]1CCC[C@H](n2cnc(-c3cc(Cl)ccc3-n3cc(Cl)nn3)cc2=O)c2cc(ccn2)-c2c(Cl)cccc2NC1=O [Example 104, (10R,14S)-3-chloro-14-{4-[5-chloro-2-(4-chloro-1H-1,2,3-triazol-1-yl)phenyl]-6-oxo-1,6-dihydropyrimidin-1-yl}-10-methyl-8,16-diazatricyclo [13.3.1.0^2,7]nonadeca-1(19),2(7),3,5,15,17-hexaen-9-one]",6.72
17,"C[C@@H]1CCC[C@H](n2cnc(-c3cc(Cl)ccc3-n3cc(C(F)(F)F)nn3)cc2=O)c2ccnc(c2)-c2ccc(C#N)cc2NC1=O [Example 113, (10R,14S)-14-(4-{5-chloro-2-[4-(trifluoromethyl)-1H-1,2,3-triazol-1-yl]phenyl}-6-oxo-1,6-dihydropyrimidin-1-yl)-10-methyl-9-oxo-8,18-diazatricyclo [13.3.1.0^2,7]nonadeca-1(19),2(7),3,5,15,17-hexaene-5-carbonitrile]",7.82
18,"C[C@@H]1CCC[C@H](n2cnc(-c3cc(Cl)ccc3-n3cc(Cl)nn3)cc2=O)c2cc(ccn2)-c2cc(C#N)ccc2NC1=O [Example 114, (10R,14S)-14-{4-[5-chloro-2-(4-chloro-1H-1,2,3-triazol-1-yl)phenyl]-6-oxo-1,6-dihydropyrimidin-1-yl}-10-methyl-9-oxo-8,16-diazatricyclo[13.3.1.0^2,7]nonadeca-1(19),2(7),3,5,15,17-hexaene-4-carbonitrile trifluoroacetate]",7.59
19,"COC(=O)Nc1ccc2c(c1)NC(=O)[C@H](C)CCC[C@H](n1cnc(-c3cc(Cl)cc4cnn(C)c34)cc1=O)c1cc-2ccn1 [Example 120, N-[(10R,14S)-14-[4-(5-chloro-1-methyl-1H-indazol-7-yl)-6-oxo-1,6-1-yl]-10-methyl-9-oxo-8,16-diazatricyclo[13.3.1.0^2,7]nonadeca-1(19),2(7),3,5,15,17-hexaen-5-yl]carbamate]",6.74
20,"C[C@@H]1CCC[C@H](n2cnc(-c3cc(Cl)ccc3-c3cnn(C(F)F)c3)cc2=O)c2cc(ccn2)-c2cc(F)ccc2NC1=O [Example 124, (10R,14S)-14-(4-{5-chloro-2-[1-(difluoromethyl)-1H-pyrazol-4-yl]phenyl}-6-oxo-1,6-dihydropyrimidin-1-yl)-4-fluoro-10-methyl-8,16-diazatricyclo [13.3.1.0^2,7]nonadeca-1(19),2(7),3,5,15,17-hexaen-9-one trifluoroacetate]",6.11
21,"COC(=O)Nc1ccc2c(c1)CCCCCC[C@H](n1cnc(-c3cc(Cl)ccc3-n3cc(Cl)nn3)cc1=O)c1nc-2c[nH]1 [Example 131, methyl N-[(14S)-14-{4-[5-chloro-2-(4-chloro-1H-1,2,3-triazol-1-)phenyl]-6-oxo-1,6-dihydropyrimidin-1-yl}-16,18-diazatricyclo[13.2.1.0^2,7]octadeca-1(17),2,4,6,15 (18)-pentaen-5-yl]carb amate trifluoroacetate]",5.66
